From the supplement of paper PMC10307832

Columns and labels:
Assay in all cases: relative viability (nuclei count vs DMSO), 5 days (fraction); higher = more cells survive
[1] = compound: CC[C@H](CO)Nc1nc(NCc2ccccc2)c2ncn(C(C)C)c2n1 [Seliciclib] + CC1(C)CCC(c2ccc(Cl)cc2)=C(CN2CCN(c3ccc(C(=O)NS(=O)(=O)c4ccc(N[C@H](CCN5CCOCC5)CSc5ccccc5)c(S(=O)(=O)C(F)(F)F)c4)cc3)CC2)C1 [Navitoclax] (partner 0.5 µM)
Outline: (§1)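 Cells from lung cancer lines were seeded into 1536-well plates and, one day later, dosed by pin tool. Treatments were either a single drug or a fixed dose of an anchor drug with five library-drug doses (not always all listed) in √10 steps. After 5 days, nuclei were stained in a one-step fixation (final 0.05% Triton X-100, 1% formaldehyde, 1 ug/ml Hoechst) and counted on 4× images, and relative viability is the treated-to-vehicle nuclei ratio, as the median of duplicate plates.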

[2] = compound: CC[C@H](CO)Nc1nc(NCc2ccccc2)c2ncn(C(C)C)c2n1 [Seliciclib] + Cc1nc(NC(=O)N2CCC[C@H]2C(N)=O)sc1-c1ccnc(C(C)(C)C(F)(F)F)c1 [Alpelisib] (partner 2 µM)
Outline: as §1

[3] = compound: CC[C@H](CO)Nc1nc(NCc2ccccc2)c2ncn(C(C)C)c2n1 [Seliciclib] + C[C@]1(O)C[C@@H](c2nc(-c3ccc4ccc(-c5ccccc5)nc4c3)c3c(N)nccn32)C1 [Linsitinib] (partner 1 µM)
Outline: as §1

[4] = compound: CC[C@H](CO)Nc1nc(NCc2ccccc2)c2ncn(C(C)C)c2n1 [Seliciclib] + O=C(CCCCCCC(=O)Nc1ccccc1)NO [Vorinostat] (partner 1 µM)
Outline: as §1

Row | Cell Line | relative viability ([1]; first compound 0.08 µM) | relative viability ([1]; first compound 0.253 µM) | relative viability ([1]; first compound 0.8 µM) | relative viability ([1]; first compound 2.53 µM) | relative viability ([1]; first compound 8 µM) | relative viability ([2]; first compound 0.08 µM) | relative viability ([2]; first compound 0.253 µM) | relative viability ([2]; first compound 0.8 µM) | relative viability ([2]; first compound 2.53 µM) | relative viability ([2]; first compound 8 µM) | relative viability ([3]; first compound 0.08 µM) | relative viability ([3]; first compound 0.253 µM) | relative viability ([3]; first compound 0.8 µM) | relative viability ([3]; first compound 2.53 µM) | relative viability ([3]; first compound 8 µM) | relative viability ([4]; first compound 0.08 µM) | relative viability ([4]; first compound 0.253 µM) | relative viability ([4]; first compound 0.8 µM) | relative viability ([4]; first compound 2.53 µM) | relative viability ([4]; first compound 8 µM)
1 | COR-L 105 | 0.86 | 0.624 | 0.597 | 0.763 | 0.684 | 0.994 | 0.808 | 1.05 | 1.04 | 0.748 | 1.04 | 0.748 | 0.943 | 0.91 | 0.926 | 0.83 | 0.901 | 0.859 | 0.802 | 0.575
2 | NCI-H441 | 0.603 | 0.365 | 0.526 | 0.566 | 0.59 | 0.631 | 0.584 | 0.776 | 0.754 | 0.51 | 0.699 | 0.545 | 0.45 | 0.572 | 0.442 | 0.844 | 0.418 | 0.898 | 0.771 | 0.639
3 | NCI-H2126 | 0.817 | 0.799 | 0.844 | 0.878 | 0.787 | 0.681 | 0.698 | 0.753 | 0.749 | 0.673 | 0.718 | 0.711 | 0.698 | 0.721 | 0.716 | 0.806 | 0.783 | 0.579 | 0.375 | 0.611
4 | HCC-44 | 1.05 | 0.934 | 0.957 | 1.07 | 1.03 | 0.845 | 0.834 | 0.798 | 0.74 | 0.707 | 0.64 | 0.626 | 0.633 | 0.697 | 0.649 | 1.14 | 1.19 | 1.06 | 1.08 | 1.07
5 | NCI-H460 | 1.1 | 1.13 | 1.03 | 1.1 | 0.801 | 0.426 | 0.485 | 0.381 | 0.538 | 0.385 | 0.797 | 0.795 | 0.75 | 1 | 0.637 | 0.709 | 0.809 | 0.671 | 0.901 | 0.552
6 | SK-LU-1 | 0.866 | 0.973 | 0.575 | 0.978 | 0.627 | 1 | 1.05 | 1.04 | 0.795 | 0.636 | 0.973 | 0.868 | 1.32 | 1.09 | 0.687 | 0.701 | 0.879 | 0.877 | 0.753 | 0.477
7 | NCI-H322M | 1.22 | 1.34 | 1.12 | 1.37 | 1.24 | 0.87 | 0.876 | 0.692 | 0.822 | 0.73 | 1.02 | 0.932 | 1.05 | 0.977 | 0.803 | 0.894 | 1.03 | 0.87 | 0.773 | 0.521
8 | EKVX | 0.951 | 1.1 | 0.865 | 0.777 | 0.702 | 0.844 | 0.9 | 0.799 | 0.794 | 0.674 | 0.925 | 1.1 | 0.94 | 1.14 | 0.711 | 0.627 | 0.857 | 0.553 | 0.633 | 0.593
9 | NCI-H1734 | 0.847 | 0.733 | 0.834 | 0.879 | 0.808 | 0.659 | 0.651 | 0.622 | 0.683 | 0.674 | 0.951 | 0.819 | 0.824 | 1.02 | 0.775 | 0.802 | 0.623 | 0.969 | 0.716 | 0.456
10 | SK-MES-1 | 1.24 | 1.34 | 1.11 | 1.04 | 0.715 | 0.811 | 0.85 | 0.846 | 0.873 | 0.948 | 1.02 | 0.995 | 1.04 | 1.05 | 0.981 | 1.03 | 1.13 | 1.11 | 1.02 | 1.01
11 | NCI-H520 | 0.96 | 0.847 | 0.997 | 1.2 | 1.18 | 0.897 | 0.682 | 0.831 | 1.02 | 0.931 | 0.954 | 0.762 | 0.924 | 0.949 | 0.935 | 0.704 | 0.635 | 0.802 | 0.725 | 0.632
12 | EPLC-272H | 1.24 | 0.987 | 1.12 | 1.28 | 1.12 | 0.968 | 0.847 | 0.795 | 1.04 | 0.895 | 1.32 | 1.09 | 1.04 | 1.35 | 0.927 | 0.43 | 0.506 | 0.476 | 0.311 | 0.405
13 | UMC-11 | 0.316 | 0.279 | 0.313 | 0.29 | 0.25 | 0.856 | 0.896 | 0.995 | 1.24 | 0.823 | 1.02 | 0.872 | 1.01 | 1.04 | 0.851 | 0.432 | 0.336 | 0.353 | 0.281 | 0.194
14 | NCI-H1993 | 0.937 | 0.635 | 0.927 | 0.962 | 0.849 | 0.728 | 0.708 | 0.716 | 0.688 | 0.669 | 0.746 | 0.749 | 0.768 | 0.724 | 0.713 | 0.836 | 0.931 | 0.883 | 0.559 | 0.498
15 | NCI-H596 | 1 | 0.567 | 0.891 | 1.16 | 0.826 | 0.522 | 0.428 | 0.498 | 0.506 | 0.468 | 1.09 | 0.636 | 0.996 | 1.12 | 1.1 | 0.635 |  | 0.56 | 0.506 | 0.47
16 | NCI-H1395 | 1.12 | 0.936 | 1.31 | 1.08 | 1.06 | 1.08 | 0.843 | 1.04 | 1.07 | 1.02 | 0.961 | 0.739 | 1 | 1.06 | 1.28 | 0.83 | 0.597 | 0.702 |  | 0.631
